According to PMC9226124, “Macrocycle-stabilization of its interaction with 14-3-3 increases plasma membrane localization and activity of CFTR” (Nature Communications, 2022):
Values joined by “and” are separate entries in the source; they are usually repeats but may differ in a detail not shown here. Identical values can stand only once.

Columns and labels:
14-3-3β/Foxo3 peptide = molecular target: T1, 14-3-3β/Foxo3 peptide (Homo sapiens, UniProt P31946); assay: FP assay of 14-3-3 partner protein peptide, Foxo3; format: binding; conditions: CY007424 100 μM
T1 construct: His6 (cleaved yes); made in house
T1 sequence (P31946 1-246): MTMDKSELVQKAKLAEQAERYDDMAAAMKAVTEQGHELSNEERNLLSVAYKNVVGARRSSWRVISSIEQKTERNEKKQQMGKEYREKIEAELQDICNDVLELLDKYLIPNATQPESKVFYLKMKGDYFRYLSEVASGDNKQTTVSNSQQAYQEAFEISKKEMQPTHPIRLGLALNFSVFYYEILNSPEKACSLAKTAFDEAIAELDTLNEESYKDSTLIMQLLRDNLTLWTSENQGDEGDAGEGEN
Protocol: (§1) The FITC-labeled peptides were dissolved in FP buffer (10 mM HEPES pH 7.4, 150 mM NaCl, 0.1% Tween20, 1 mg/mL BSA) to a final concentration of 100 nM or 10 nM. For the dose-response assays, a 14-3-3β concentration of 10 μM was used while titrating the compounds in a two-times dilution series and, for the other assays, a dilution series of 14-3-3β was made with constant concentration of compound. The dilution series were made in 384 Corning Black Round Bottom well plates and their polarization was measured with a Tecan Infinite F500 plate reader (ex. = 485 nm, em. = 535 nm). The method of fitting of the curves was: “log(agonist) vs. response – Variable slope (four parameters)” from GraphPad Prism. The equation is Y = Bottom + (Top-Bottom)/(1 + 10^((LogEC50-X)*HillSlope)).
(§2) Supplementary Figure 2. Stabilization of the interaction between 14-3-3β and a collection of different 14-3-3 partner protein peptides by CY00742 4. […] Background polarization was subtracted from all values, n=3 technical replicates. Source data are provided as a Source Data file.
(§3) (1 picture or pasted object on this page, not shown here)

14-3-3β/p53 peptide = molecular target: T2, 14-3-3β/p53 peptide (Homo sapiens, UniProt P31946); assay: FP assay of 14-3-3 partner protein peptide, p53; format: binding; conditions: CY007424 100 μM
T2 construct: His6 (cleaved yes); made in house
T2 sequence (P31946 1-246): T1 sequence (P31946 1-246)
Protocol: as §1, §2, §3

FP signal (14-3-3β/Foxo3 peptide; 14-3-3β 3.8147e-9 M): 0.3333
FP signal (14-3-3β/Foxo3 peptide; 14-3-3β 3.05176e-8 M): 4.333 and 3.333
FP signal (14-3-3β/Foxo3 peptide; 14-3-3β 6.10352e-8 M): 7.333 and 6.333
FP signal (14-3-3β/Foxo3 peptide; 14-3-3β 1.2207e-7 M): 14.3333 and 19.3333 and 15.3333
FP signal (14-3-3β/Foxo3 peptide; 14-3-3β 2.44141e-7 M): 27.3333 and 29.3333 and 28.3333
FP signal (14-3-3β/Foxo3 peptide; 14-3-3β 4.88281e-7 M): 45.3333 and 46.3333 and 43.3333
FP signal (14-3-3β/Foxo3 peptide; 14-3-3β 9.76563e-7 M): 62.3333 and 55.3333
FP signal (14-3-3β/Foxo3 peptide; 14-3-3β 1.95313e-6 M): 71.3333 and 70.3333
FP signal (14-3-3β/Foxo3 peptide; 14-3-3β 3.90625e-6 M): 88.3333 and 86.3333 and 85.3333
FP signal (14-3-3β/Foxo3 peptide; 14-3-3β 7.8125e-6 M): 104.333 and 105.333 and 107.333
FP signal (14-3-3β/Foxo3 peptide; 14-3-3β 1.5625e-5 M): 129.333 and 126.333 and 125.333
FP signal (14-3-3β/Foxo3 peptide; 14-3-3β 3.125e-5 M): 145.333 and 149.333 and 146.333
FP signal (14-3-3β/Foxo3 peptide; 14-3-3β 6.25e-5 M): 167.333 and 166.333
FP signal (14-3-3β/Foxo3 peptide; 14-3-3β 0.000125 M): 181.333 and 182.333 and 185.333
FP signal (14-3-3β/Foxo3 peptide; 14-3-3β 0.00025 M): 195.333 and 193.333 and 196.333
FP signal (14-3-3β/p53 peptide; 14-3-3β 59.6 pM): 4 and 3
FP signal (14-3-3β/p53 peptide; 14-3-3β 119.2 pM): 4 and 3
FP signal (14-3-3β/p53 peptide; 14-3-3β 3.8147e-9 M): 4 and 7
FP signal (14-3-3β/p53 peptide; 14-3-3β 7.62939e-9 M): 7 and 6 and 4
FP signal (14-3-3β/p53 peptide; 14-3-3β 1.52588e-8 M): 5 and 3 and 4
FP signal (14-3-3β/p53 peptide; 14-3-3β 3.05176e-8 M): 3 and 5 and 4
FP signal (14-3-3β/p53 peptide; 14-3-3β 6.10352e-8 M): 10 and 9
FP signal (14-3-3β/p53 peptide; 14-3-3β 1.2207e-7 M): 13 and 15
FP signal (14-3-3β/p53 peptide; 14-3-3β 2.44141e-7 M): 15 and 18
FP signal (14-3-3β/p53 peptide; 14-3-3β 4.88281e-7 M): 20 and 24 and 21
FP signal (14-3-3β/p53 peptide; 14-3-3β 9.76563e-7 M): 21 and 25 and 23
FP signal (14-3-3β/p53 peptide; 14-3-3β 1.95313e-6 M): 20 and 22 and 21
FP signal (14-3-3β/p53 peptide; 14-3-3β 3.90625e-6 M): 21 and 20
FP signal (14-3-3β/p53 peptide; 14-3-3β 7.8125e-6 M): 24 and 20 and 21
FP signal (14-3-3β/p53 peptide; 14-3-3β 1.5625e-5 M): 17 and 22 and 25
FP signal (14-3-3β/p53 peptide; 14-3-3β 3.125e-5 M): 26 and 24 and 29
FP signal (14-3-3β/p53 peptide; 14-3-3β 6.25e-5 M): 31 and 32 and 34
FP signal (14-3-3β/p53 peptide; 14-3-3β 0.000125 M): 44 and 45 and 48
FP signal (14-3-3β/p53 peptide; 14-3-3β 0.00025 M): 66 and 67 and 63
Structure (SMILES): N=C(N)NCCCC1NCc2ccccc2Sc2ccccc2CNC(=O)C(Cc2ccc(O)cc2)NC(=O)C(CCCN)NC1=O (stereo not shown) [CY007424]
